According to patent US8153791B2, “Substituted pyrimidinyl oxime kinase inhibitors” (Janssen Pharmaceutica N.V., priority 2005, dated 2012):
Where two headings read alike, the source gives them in different places.

What was measured:
[1] = system: SK-OV-3 ovarian carcinoma; test: In vitro cell proliferation inhibition, SK-OV-3; assay type: cell-based; conditions: Homo sapiens; SK-OV-3 cells, 14C-thymidine incorporation
Source text: (§1) The ability of a test compound to inhibit unregulated in vitro cell proliferation may be determined by measuring incorporation of ^14C-labelled thymidine into newly synthesized DNA within cell lines derived from carcinomas originating from several tissues. Accordingly, the effect of a test compound on proliferation of cells with a variety of phenotypes may be determined.
(§2) Carcinoma cell lines used include the HeLa cervical adenocarcinoma from the American Type Culture Collection (ATCC Cat. #CCL2), SK-OV-3 ovarian carcinoma (ATCC Cat. #HTB-77), MCF-7 breast carcinoma (ATCC Cat. #HTB-22), BT474 breast carcinoma (ATCC Cat. #HTB-20), SKBR3 breast carcinoma (ATCC Cat. #HTB-30), A431 epidermoid carcinoma (ATCC Cat. #CRL-1555) and NCI-N87 gastric carcinoma (ATCC Cat. #CRL-5822).
(§3) The carcinoma cells are trypsinized and counted. The cells (3000-8000 count) are added to each well of a 96-well CytoStar tissue culture treated scintillating microplate (Amersham #RPNQ0160) in complete medium (100 μL) and the plate is then incubated in complete medium for 24 hrs at 37° C. in an inert atmosphere containing 5% CO2.
(§4) Test compound (1 μL) in 100% DMSO is added to the plate test-wells with DMSO only added to control-wells. The plate is incubated in complete medium for a second 24 hr period at 37° C. in an atmosphere containing 5% CO2.
(§5) An aliquot of a solution of Methyl ^14C-thymidine (56 mC/mmol) (NEN #NEC568 or Amersham #CFA532) and complete medium (20 μL to provide 0.2 μCi/well) is then added to each well and the plate is incubated for a third 24 hr period at 37° C. in an atmosphere containing 5% CO2.
(§6) The plate contents are then discarded, the plate is washed twice with PBS (200 μL) and then PBS (200 μL) is added to each well. The plate is sealed and the degree of methyl ^14C-thymidine incorporation is quantified on a Packard Top Count.
(§7) Cell proliferation of the Hela cell line was measured using the ATP-Lite method as described in the ATP Lite Kit (Perkin-Elmer Kit Number 6106941) or the C^14 method as described above. Cell proliferation of the other cell lines was measured using the C^14 method.
(§8) The term “NT” means that the compound indicated was not tested in a particular cell line. The lack of such testing is not intended to imply a belief that the compound is not otherwise active in a particular cell line or any other cell line not tested.

[2] = system: HeLa cervical adenocarcinoma; test: In vitro cell proliferation inhibition, HeLa; assay type: cell-based; conditions: Homo sapiens, read-out: HeLa IC50
Source text: as §1, §2, §3, §4, §5, §6, §7, §8

[3] = system: NCI-N87 gastric carcinoma; test: In vitro cell proliferation inhibition, NCI-N87; assay type: cell-based; conditions: Homo sapiens
Source text: as §1, §2, §3, §4, §5, §6, §7, §8

[4] = system: MCF-7 breast carcinoma; test: In vitro cell proliferation inhibition, MCF-7; assay type: cell-based; conditions: Homo sapiens, MCF7; MCF-7 cells, 14C-thymidine incorporation
Source text: as §1, §2, §3, §4, §5, §6, §7, §8

[5] = system: BT474 breast carcinoma; test: In vitro cell proliferation inhibition, BT474; assay type: cell-based; conditions: Homo sapiens
Source text: as §1, §2, §3, §4, §5, §6, §7, §8

[6] = system: SKBR3 breast carcinoma; test: In vitro cell proliferation inhibition, SKBR3; assay type: cell-based; conditions: Homo sapiens
Source text: as §1, §2, §3, §4, §5, §6, §7, §8

[7] = system: A431 epidermoid carcinoma; test: In vitro cell proliferation inhibition, A431; assay type: cell-based; conditions: Homo sapiens
Source text: as §1, §2, §3, §4, §5, §6, §7, §8

[8] = target: T1, HER-2 (Homo sapiens, UniProt P04626); test: HER-2 Kinase Assay; assay type: biochemical; conditions: read-out: HER2 IC50;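 note: HER2 kinase reaction read by scintillation counting, inhibition scaled between maximum and minimum signals set on each plate, IC50 from inhibition against log concentration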
T1 construct: purchased Proqinase (Freiburg, Germany)

[9] = target: T2, EGFR (Homo sapiens, UniProt P00533); test: EGFR Kinase Assay; assay type: biochemical;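 note: recombinant GST-tagged EGFR expressed in Sf9 cells, phosphorylating biotinylated polyGluTyr with γ-33P ATP on Streptavidin Flashplates, 1 h at 30 °C, scintillation counting, inhibition relative to plate maximum and minimum signals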
T2 construct: The intracellular portion of EGFR started at nucleotide 2189 (corresponding to amino acid 667) and ended at the termination codon; made in house; host or cells: Sf9 insect cells (baculovirus)

[10] = HeLa cell line, ATP-Lite method or C14 thymidine method
[11] = NCI-N87, N87 cells, 14C-thymidine incorporation, read-out: IC50 N87
[12] = BT-474, BT474 cells, 14C-thymidine incorporation, read-out: IC50 BT474
[13] = SK-BR-3, SKBR3 cells, 14C-thymidine incorporation, read-out: IC50 SKBR3
[14] = A-431, A431 cells, 14C-thymidine incorporation, read-out: IC50 A431

T1 sequence (P04626 679-1255): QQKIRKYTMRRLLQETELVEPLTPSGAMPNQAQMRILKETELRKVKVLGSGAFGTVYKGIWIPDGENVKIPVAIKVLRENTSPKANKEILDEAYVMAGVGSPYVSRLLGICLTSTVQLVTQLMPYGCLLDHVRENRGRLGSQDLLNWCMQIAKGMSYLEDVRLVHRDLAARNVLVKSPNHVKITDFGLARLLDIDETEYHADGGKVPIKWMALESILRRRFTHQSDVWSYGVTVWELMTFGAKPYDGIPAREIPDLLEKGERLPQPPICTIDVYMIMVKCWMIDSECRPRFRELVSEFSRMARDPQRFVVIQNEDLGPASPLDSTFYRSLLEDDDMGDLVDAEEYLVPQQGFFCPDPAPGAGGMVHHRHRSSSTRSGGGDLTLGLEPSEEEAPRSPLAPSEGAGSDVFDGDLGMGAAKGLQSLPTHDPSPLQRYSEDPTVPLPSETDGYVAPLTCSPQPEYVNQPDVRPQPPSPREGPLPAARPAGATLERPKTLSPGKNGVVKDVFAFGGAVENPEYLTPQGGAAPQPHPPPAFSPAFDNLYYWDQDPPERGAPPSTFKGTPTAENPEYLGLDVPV
T2 sequence (P00533 669-1210 limits assumed): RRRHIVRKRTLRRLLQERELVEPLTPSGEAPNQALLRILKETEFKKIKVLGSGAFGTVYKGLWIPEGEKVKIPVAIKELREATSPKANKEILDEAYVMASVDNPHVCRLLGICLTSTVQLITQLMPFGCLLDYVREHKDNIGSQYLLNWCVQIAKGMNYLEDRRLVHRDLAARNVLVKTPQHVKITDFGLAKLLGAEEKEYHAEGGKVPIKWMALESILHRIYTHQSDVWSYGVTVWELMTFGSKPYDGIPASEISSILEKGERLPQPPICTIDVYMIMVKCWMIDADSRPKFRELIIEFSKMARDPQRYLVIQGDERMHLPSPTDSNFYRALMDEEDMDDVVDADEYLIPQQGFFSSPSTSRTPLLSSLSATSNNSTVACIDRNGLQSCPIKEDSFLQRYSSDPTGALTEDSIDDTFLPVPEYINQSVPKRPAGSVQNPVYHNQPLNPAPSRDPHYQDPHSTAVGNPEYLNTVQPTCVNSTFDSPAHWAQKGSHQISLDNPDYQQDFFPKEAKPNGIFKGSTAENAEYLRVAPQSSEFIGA

IC50 [1] [nM]	IC50 [2, 10] [nM]	IC50 [3, 11] [nM]	IC50 [4] [nM]	IC50 [5, 12] [nM]	IC50 [6, 13] [nM]	IC50 [7, 14] [nM]	IC50 [8] [nM]	IC50 [9] [nM]	SMILES	IC50 ([5]; BT-474, read-out: IC50 BT474) [nM]	IC50 ([6]; SK-BR-3, read-out: IC50 SKBR3) [nM]	IC50 ([7]; A-431, read-out: IC50 A431) [nM]	IC50 ([2]; HeLa) [nM]	IC50 ([3]; NCI-N87, read-out: IC50 N87) [nM]
3200	3500	200	3800	–	–	–	–	–	CO/N=C/c1c(N)ncnc1Nc1ccc2c(ccn2Cc2cccc(F)c2)c1 [Cpd 34, (5E)-4-amino-6-[1-(3-fluoro-benzyl)-1H-indol-5-ylamino]-pyrimidine-5-carbaldehyde O-methyl-oxime]	–	–	–	–	–
5400	9400	200	10000	200	300	1300	30	7	Nc1ncnc(Nc2ccc3c(ccn3Cc3cccc(F)c3)c2)c1/C=N/OCCCO [Cpd 91, (5E)-4-amino-6-[1-(3-fluoro-benzyl)-1H-indol-5-ylamino]-pyrimidine-5-carbaldehyde O-(3-hydroxy-propyl)-oxime]	–	–	–	–	–
10000	10000	600	10000	–	–	–	–	–	CO/N=C/c1c(N)ncnc1Nc1ccc2[nH]c(Cc3cccc(F)c3)nc2c1 [Cpd 60, (5E)-4-amino-6-[2-(3-fluoro-benzyl)-1H-benzoimidazol-5-ylamino]-pyrimidine-5-carbaldehyde O-methyl-oxime]	–	–	–	–	–
–	100000	100000	–	100000	100000	100000	100	30	N#Cc1c(N)ncnc1Nc1ccc(OCc2ccccc2)c(Cl)c1 [Cpd 118, 4-amino-6-(4-benzyloxy-3-chloro-phenylamino)-pyrimidine-5-carbonitrile]	–	–	–	–	–
100000	35000	700	86600	–	–	–	–	–	CO/N=C/c1c(N)ncnc1Nc1ccc(OCc2ccccc2)c(Cl)c1 [Cpd 9, (5E)-4-amino-6-(4-benzyloxy-3-chloro-phenylamino)-pyrimidine-5-carbaldehyde O-methyl-oxime]	–	–	–	–	–
–	1400	200	–	900	700	1	140	40	Nc1ncnc(Nc2ccc3c(ccn3Cc3cccc(F)c3)c2)c1/C=N/OCCN1CCCCC1 [Cpd 102, (5E)-4-amino-6-[1-(3-fluoro-benzyl)-1H-indol-5-ylamino]-pyrimidine-5-carbaldehyde O-(2-piperidin-1-yl-ethyl)-oxime]	–	–	–	–	–
10000	40100	1	30700	–	–	–	9	8	Nc1ncnc(Nc2ccc(OCc3cccc(F)c3)c(Cl)c2)c1/C=N/OCCCO [Cpd 75, (5E)-4-amino-6-[3-chloro-4-(3-fluoro-benzyloxy)-phenylamino]-pyrimidine-5-carbaldehyde O-(3-hydroxy-propyl)-oxime]	–	–	–	–	–
2400	12100	1100	1000	10000	10000	100000	200	50	Nc1ncnc(Nc2ccc(OCc3ccccc3)c(Cl)c2)c1/C=N/OCCN1CCCCC1 [Cpd 95, (5E)-4-amino-6-(4-benzyloxy-3-chloro-phenylamino)-pyrimidine-5-carbaldehyde O-(2-piperidin-1-yl-ethyl)-oxime]	–	–	–	–	–
24100	59400	300	10000	200	300	1800	30	10	Nc1ncnc(Nc2ccc(OCc3ccccc3)c(Cl)c2)c1/C=N/OCCCO [Cpd 76, (5E)-4-amino-6-(4-benzyloxy-3-chloro-phenylamino)-pyrimidine-5-carbaldehyde O-(3-hydroxy-propyl)-oxime]	–	–	–	–	–
15300	14700	200	2100	200	400	800	100	60	Nc1ncnc(Nc2ccc3c(cnn3Cc3cccc(F)c3)c2)c1/C=N/OCCN1CCCCC1 [Cpd 96, (5E)-4-amino-6-[1-(3-fluoro-benzyl)-1H-indazol-5-ylamino]-pyrimidine-5-carbaldehyde O-(2-piperidin-1-yl-ethyl)-oxime]	–	–	–	–	–
19100	10000	40	2500	30	100	1100	50	20	Nc1ncnc(Nc2ccc3c(cnn3Cc3cccc(F)c3)c2)c1/C=N/OCCN1CCOCC1 [Cpd 19, (5E)-4-amino-6-[1-(3-fluoro-benzyl)-1H-indazol-5-ylamino]-pyrimidine-5-carbaldehyde O-(2-morpholin-4-yl-ethyl)-oxime]	–	–	–	–	–
–	4900	300	–	300	500	3600	70	30	Nc1ncnc(Nc2ccc3c(cnn3Cc3cccc(F)c3)c2)c1/C=N/OCCCN1CCOCC1 [Cpd 87, (5E)-4-amino-6-[1-(3-fluoro-benzyl)-1H-indazol-5-ylamino]-pyrimidine-5-carbaldehyde O-(3-morpholin-4-yl-propyl)-oxime]	–	–	–	–	–
–	4700	200	–	200	400	3100	30	50	Nc1ncnc(Nc2ccc3c(cnn3Cc3cccc(F)c3)c2)c1/C=N/OCCCN1CCCCC1 [Cpd 92, (5E)-4-amino-6-[1-(3-fluoro-benzyl)-1H-indazol-5-ylamino]-pyrimidine-5-carbaldehyde O-(3-piperidin-1-yl-propyl)-oxime]	–	–	–	–	–

SMILES	IC50 [1] [nM]	IC50 [2, 10] [nM]	IC50 [3, 11] [nM]	IC50 [4] [nM]	IC50 [5, 12] [nM]	IC50 [6, 13] [nM]	IC50 [7, 14] [nM]	IC50 [8] [nM]	IC50 [9] [nM]	IC50 ([5]; BT-474, read-out: IC50 BT474) [nM]	IC50 ([6]; SK-BR-3, read-out: IC50 SKBR3) [nM]	IC50 ([7]; A-431, read-out: IC50 A431) [nM]	IC50 ([2]; HeLa) [nM]	IC50 ([3]; NCI-N87, read-out: IC50 N87) [nM]
CN(C)CCCO/N=C/c1c(N)ncnc1Nc1ccc2c(cnn2Cc2cccc(F)c2)c1 [Cpd 70, (5E)-4-amino-6-[1-(3-fluoro-benzyl)-1H-indazol-5-ylamino]-pyrimidine-5-carbaldehyde O-(3-dimethylamino-propyl)-oxime]	–	–	–	–	–	–	–	20	20	100	400	14200	10000	300
